Laboratory results reported in article PMC7419559 (Scientific Reports, 2020).
Read-outs that look alike come from different tables or passages of the source.

Key:
G9a = target: T1, G9a (Homo sapiens, UniProt Q96KQ7); assay: AlphaLISA based G9a methyltransferase inhibition screening (H3K9 dimethylation); format: biochemical
T1 construct: purchased Sigma-Aldrich
T1 sequence (Q96KQ7 1-1210): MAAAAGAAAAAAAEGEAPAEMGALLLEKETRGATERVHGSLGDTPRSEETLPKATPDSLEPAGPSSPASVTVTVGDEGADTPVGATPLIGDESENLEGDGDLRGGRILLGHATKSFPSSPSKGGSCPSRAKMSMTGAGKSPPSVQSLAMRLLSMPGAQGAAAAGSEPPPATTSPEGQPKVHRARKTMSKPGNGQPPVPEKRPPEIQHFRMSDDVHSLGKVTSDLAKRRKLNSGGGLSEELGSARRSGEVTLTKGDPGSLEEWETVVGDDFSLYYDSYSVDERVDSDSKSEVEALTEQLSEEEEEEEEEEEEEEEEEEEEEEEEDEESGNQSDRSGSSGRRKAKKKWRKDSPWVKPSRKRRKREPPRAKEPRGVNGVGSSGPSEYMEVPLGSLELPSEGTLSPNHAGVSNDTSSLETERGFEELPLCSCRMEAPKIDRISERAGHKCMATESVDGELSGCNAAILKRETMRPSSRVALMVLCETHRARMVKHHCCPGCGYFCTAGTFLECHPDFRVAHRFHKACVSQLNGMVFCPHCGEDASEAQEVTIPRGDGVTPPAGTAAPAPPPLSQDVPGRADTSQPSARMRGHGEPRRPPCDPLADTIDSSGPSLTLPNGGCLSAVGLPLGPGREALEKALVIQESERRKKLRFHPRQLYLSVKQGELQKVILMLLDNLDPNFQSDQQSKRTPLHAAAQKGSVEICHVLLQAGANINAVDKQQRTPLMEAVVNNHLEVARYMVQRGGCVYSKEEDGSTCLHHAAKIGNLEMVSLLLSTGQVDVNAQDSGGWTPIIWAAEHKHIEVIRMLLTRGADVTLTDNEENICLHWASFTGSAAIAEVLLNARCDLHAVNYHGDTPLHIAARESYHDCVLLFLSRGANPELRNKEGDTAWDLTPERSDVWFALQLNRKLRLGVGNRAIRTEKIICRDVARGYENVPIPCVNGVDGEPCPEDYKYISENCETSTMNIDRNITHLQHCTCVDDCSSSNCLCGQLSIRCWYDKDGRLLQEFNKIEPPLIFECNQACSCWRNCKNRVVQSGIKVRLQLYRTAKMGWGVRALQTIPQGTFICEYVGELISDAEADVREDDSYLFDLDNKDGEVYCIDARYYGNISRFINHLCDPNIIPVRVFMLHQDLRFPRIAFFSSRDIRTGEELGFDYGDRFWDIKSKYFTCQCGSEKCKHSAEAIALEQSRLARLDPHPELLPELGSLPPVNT
Experimental: Inhibition of G9a was examined in an AlphaLISA based format with protocols provided by PerkinElmer. In brief, compounds were incubated for 30 min on white 384-well microplates at the indicated concentration and with 5 nM G9a (Supplementary Information, Figure S1), 100 nM histone H3 (1–21) fragment and 15 µM SAM in assay buffer (50 mM Tris–HCl (pH = 9.0); 50 mM NaCl, 1 mM dithiothreitol, 0.01% Tween-20). Incubation was terminated by addition of anti-H3K9me2 acceptor beads in provided detection buffer. After incubating the mixture for 60 min, streptavidin-coated donor beads were added to the mix for additional 30 min. Luminescence was then measured using the AlphaLISA luminescence filter of an Infinite M1000pro multiplate reader (Tecan, Maennedorf, Switzerland) for 1,000 ms (integration time).
For experiments employing radiolabeled ligands, raw data that were measured as counts-per-minute [c.p.m.] were reduced by non-specific binding. For affinity measurements, such results were fitted to least-squares method “One site competition” of GraphPad Prism version 7.0 (La Jolla, CA, United States) and final values were calculated as means [95% confidence interval]. […] Data were stated as means ± s.d. […] Data were stated as means ± s.d. with the indicated number of replicates. For CRE-Luc assays, data were normalized to luminescence derived by forskolin containing samples (= 100%) and minimum luminescence measured in samples containing forskolin + N^α-methylhistamine (10 µM) (= 0%). Data from both experiments were globally fit to the “Gaddum/Schild EC50 shift” model of GraphPad Prism and were stated as means [95% confidence interval].

[1] = target: T2, rat isoform of H3R (rH3R) (Rattus norvegicus, UniProt Q9QYN8); assay: CRE-Luc reporter gene Schild assay at rH3R in HEK-293T cells; format: cell-based
T2 construct: expressed in transfected cells; host or cells: HEK-293T
Experimental: The mixture was incubated for 5 h under culture conditions. […] Lysed homogenate was transferred into white microplates. […] For experiments employing radiolabeled ligands, raw data that were measured as counts-per-minute [c.p.m.] were reduced by non-specific binding. […] Data were stated as means ± s.d. […] Data were stated as means ± s.d. with the indicated number of replicates.

[2] = target: T3, human isoform of histamine H3 receptor (hH3R) (Homo sapiens, UniProt Q9Y5N1); assay: [3H]Nα-methylhistamine displacement at hH3R, membranes of transfected HEK-293T cells; format: binding
T3 construct: expressed in transfected cells; host or cells: HEK-293T
Experimental: NM_007232.3) was determined in radioligand displacement studies at membrane preparations of transfected HEK-293 T cells. […] The workflow to terminate incubation and measurement of bound radioligand was identical for both experimental set-ups. Briefly, samples were filtrated from microplates onto GF/B filters presoaked with 0.3% polyethyleneimine solution using a 96-well cell harvester. Filter mats were washed three times with water at 4 °C, dried for 60 min (54 °C), soaked with scintillation liquid (Betaplate Scint, PerkinElmer), sealed and subjected to scintillation counting. For experiments employing radiolabeled ligands, raw data that were measured as counts-per-minute [c.p.m.] were reduced by non-specific binding. For affinity measurements, such results were fitted to least-squares method “One site competition” of GraphPad Prism version 7.0 (La Jolla, CA, United States) and final values were calculated as means [95% confidence interval]. […] Data were stated as means ± s.d. […] Data were stated as means ± s.d. with the indicated number of replicates. […] Data from both experiments were globally fit to the “Gaddum/Schild EC50 shift” model of GraphPad Prism and were stated as means [95% confidence interval].

Spindlin1 = Spindlin1 (Homo sapiens, UniProt Q9Y657); assay: Spindlin1 inhibition, fluorescence polarization displacement assay; format: binding; details: for Spindlin1 inhibition: fluorescence polarization-based screening
Experimental: Spindlin1 inhibition was determined using the fluorescence polarization displacement assay described by Wagner et al.[37] For the IC50 values, 12 concentrations were measured in triplicates.

Spindlin1, sequence (Q9Y657 whole entry, species assumed): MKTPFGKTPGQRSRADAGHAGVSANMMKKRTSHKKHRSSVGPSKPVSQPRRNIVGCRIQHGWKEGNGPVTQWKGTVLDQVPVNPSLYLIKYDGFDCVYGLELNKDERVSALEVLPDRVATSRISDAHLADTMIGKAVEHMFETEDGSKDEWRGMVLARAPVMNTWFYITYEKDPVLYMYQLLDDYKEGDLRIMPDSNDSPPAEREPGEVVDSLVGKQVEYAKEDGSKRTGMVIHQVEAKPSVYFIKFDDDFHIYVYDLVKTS
T2 sequence (Q9QYN8 whole entry, canonical isoform): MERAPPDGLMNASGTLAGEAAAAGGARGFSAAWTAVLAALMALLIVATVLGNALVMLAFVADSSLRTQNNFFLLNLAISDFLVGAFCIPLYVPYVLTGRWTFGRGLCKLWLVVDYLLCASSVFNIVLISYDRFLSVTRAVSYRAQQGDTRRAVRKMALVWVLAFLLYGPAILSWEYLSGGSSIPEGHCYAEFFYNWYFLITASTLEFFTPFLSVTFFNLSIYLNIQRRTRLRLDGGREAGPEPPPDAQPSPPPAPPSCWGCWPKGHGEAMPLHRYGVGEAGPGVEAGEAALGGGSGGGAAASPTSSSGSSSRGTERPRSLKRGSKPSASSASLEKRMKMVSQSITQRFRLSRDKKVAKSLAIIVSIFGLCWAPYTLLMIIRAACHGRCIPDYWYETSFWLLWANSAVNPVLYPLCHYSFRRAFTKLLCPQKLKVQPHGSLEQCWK
T3 sequence (Q9Y5N1 whole entry, canonical isoform): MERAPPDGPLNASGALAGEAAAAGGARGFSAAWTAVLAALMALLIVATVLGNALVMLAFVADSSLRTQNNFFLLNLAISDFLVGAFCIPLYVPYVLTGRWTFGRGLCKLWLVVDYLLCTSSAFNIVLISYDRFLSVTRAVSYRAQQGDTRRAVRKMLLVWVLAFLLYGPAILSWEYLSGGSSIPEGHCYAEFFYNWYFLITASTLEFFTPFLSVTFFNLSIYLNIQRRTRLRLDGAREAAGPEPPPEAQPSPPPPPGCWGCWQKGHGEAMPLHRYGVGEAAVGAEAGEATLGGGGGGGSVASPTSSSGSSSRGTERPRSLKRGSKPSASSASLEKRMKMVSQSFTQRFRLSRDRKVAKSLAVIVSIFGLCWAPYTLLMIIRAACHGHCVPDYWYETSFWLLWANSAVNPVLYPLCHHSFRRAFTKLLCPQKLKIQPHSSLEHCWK

With `COc1cc2c(cc1OCCCN1CCCC1)N=C(N)C21CCC1` [A-366] the inhibition at 10 µM (G9a) was 100 ± 0.04%, the Kb [1] was 15 nM and the Schild-plot slope ([1]; rH3R, mean ± 95% confidence interval, not significantly different from unity) was 0.79 ± 0.45. It also gave a Ki ([2]; [3H]Nα-methylhistamine 2 nM, 90 min, mean [95% CI], read-out: hH3R affinity Ki [CI95%]) of 17 nM.

`O=C(c1ccc(OCCCc2cnc[nH]2)cc1)C1CC1` [Ciproxifan] was tested, and the Spindlin1 inhibition (Spindlin1) was “No inhibition”.

`O=C(c1ccc(OCCCN2CCCCC2)cc1)C1CC1` [UCL-2190] was tested, and the inhibition at 10 µM (G9a) was 13.9 ± 9.3% and the Spindlin1 inhibition (Spindlin1) was “No inhibition”.

In the case of `Clc1ccc(CCCOCCCN2CCCCC2)cc1` [Pitolisant], the Spindlin1 inhibition (Spindlin1) is reported as “No inhibition”.

With `COc1cc2c(NC3CCN(C(C)C)CC3)nc(N3CCC(F)(F)CC3)nc2cc1OCCCN1CCCC1` [UNC-0642] the inhibition at 10 µM (G9a) was 99.9 ± 0.09%, the Ki [2] was 1.8 nM and the IC50 (Spindlin1; fluorescence polarization, 12 concentrations in triplicates) was 2700 nM.
